Measurements published in patent US5141929A, “Lipophilic ethers and/or esters of D-desosamine and their compositions as anti-bacteria and anti-fungus agents” (Societe Anonyme dite: L'Oreal, priority 1988, dated 1992).
≈ marks a conversion by molar mass, not a printed value. Like-named read-outs stand apart in the source and are kept apart here.

Legend:
P37 E⊖ (resistant) = experiment: MIC by dilution method, erythromycin-resistant P. acnes strain P37 E⊖; type: cell-based, propionibacterium acnes; details: for MIC: Cutibacterium acnes
Source text: (§1) The activity of the esters and/or ethers of D-desosamine has been studied by the dilution method to determine the minimum inhibiting concentration (MIC) This method is described and employed by G.A. Denys et al, Antimicrobial Agents and Chemotherapy (1983) 23, 335-337 and J.J. Leyden et al, J. Am. Acad. Dermatol. (1983) 8 (1) 41-5, by using as the procionibacterium acnes strain, strain P37 furnished by Cunliffe and Holland.
(§2) On the other hand, after 8 successive sub-cultures in the same medium (RCM* 19/20, DMSO […] by volume) with the view of obtaining a progressive stabilization of this strain in this medium, a progressive resistance to erythromycin was manifested in the following form:
(§3) after spreading a standardized inoculum (DO=1.8 at 450 nm) on a gelose medium (RCM+furazolidone), in a Petri dish, a 9 mm diameter disc is deposited at its center. On the disc, 50 μg of erythromycin (in solution in DMSO) are deposited.
(§4) After 6 days at 36° C. in an anerobic medium (GAS-PAK, B.B.L. system) an inhibition zone of the growth of the strain is clearly visible (total diameter=42 mm), the majority of the colonies being situated at the periphery of the inhibition zone.
(§5) The two types of colonies are then retained by stripping of the gelose medium (sterilized platinum loop):
(§6) (1) at the interior of the inhibition zone there are stripped off strains, called P37 E⊖ by reason of their apparent resistance to erythromycin.
(§7) After isolation and culturing, the P37 E⊕ and P37 E⊖ strains effectively show very different sensitivities to erythromycin as illustrated by the following respective MIC values.
(§8) The minimum inhibiting concentration (MIC), expressed in μg/ml of the esters and/or ethers of D-desosamine tested vis-a-vis strains of propionibacterium Acnes P37, P37E⊕ and P37E⊖ and staphilococcus epidermidis ATCC 12228, is reported in the following Table I.

[1] = system: propionibacterium Acnes P37; experiment: MIC by dilution method, Propionibacterium acnes strain P37; type: cell-based; details: for MIC: Cutibacterium acnes
Source text: as §1
This P37 strain has been the object of studies described in the following publications:
as §8

[2] = system: staphilococcus epidermidis ATCC 12228; experiment: MIC by dilution method, staphilococcus epidermidis ATCC 12228; type: cell-based; details: Table I; for MIC: read-out: minimum inhibiting concentration (MIC), ATCC 12228
Source text: as §1, §8

P37 E⊕ (sensitive) = experiment: MIC by dilution method, erythromycin-sensitive P. acnes strain P37 E⊕; type: cell-based, propionibacterium acnes; details: for MIC: Cutibacterium acnes
Source text: as §1, §2, §3, §4, §5
(§9) (2) at 1 cm beyond the periphery of the inhibition zone, there are stripped off strains called P37 E⊕.
as §7, §8

P37 [3] = experiment: IC 50 (50% survivors at constant culturing time), strain P37; type: cell-based, propionibacterium acnes; details: Cutibacterium acnes, read-out: IC 50 (inhibiting concentration at 50%), P37
Source text: (§10) This phenomenon is confirmed by the study of the IC 50 (inhibiting concentration at 50%) which represents the concentration of erythromycin where, at a constant culturing time, 50% survivors among the population are found.

P37 [4] = experiment: Disc diffusion inhibition zone on gelose medium, sub-cultured strain P37; type: cell-based, propionibacterium acnes; details: Cutibacterium acnes, 144 h, read-out: inhibition zone of the growth of the strain, total diameter
Protocol: as §2, §3, §4

P37 E⊕ = experiment: IC 50 (50% survivors at constant culturing time), strain P37 E⊕; type: cell-based, propionibacterium acnes; details: Cutibacterium acnes, read-out: IC 50 (inhibiting concentration at 50%), P37 E⊕
Source text: as §9, §10

P37 E⊖ = experiment: IC 50 (50% survivors at constant culturing time), strain P37 E⊖; type: cell-based, propionibacterium acnes; details: Cutibacterium acnes, read-out: IC 50 (inhibiting concentration at 50%), P37 E⊖
Source text: as §6, §10

[5] = read-out: minimum inhibiting concentration (MIC), P37 E⊖ (resistant)
[6] = ACNESP37, Table I, P. acnes P37, read-out: minimum inhibiting concentration (MIC), P37
[7] = Table I, erythromycin-sensitive, read-out: minimum inhibiting concentration (MIC), P37 E⊕ (sensitive)

Molecule | MIC (P37 E⊖ (resistant); [5]) [µg/mL] | MIC [1, 6] [µg/mL] | MIC [2] [µg/mL] | MIC (P37 E⊕ (sensitive); [7]) [µg/mL] | also measured
CCCCCCCCOC1O[C@H](C)C[C@H](N(C)C)[C@H]1OCCCCCCCC (stereo partly drawn) [Compound 14, di-O-octyl-1,2-α,β-D-desosamine] | 0.1 (≈ 0.25 µM) | 0.5 (≈ 1.25 µM) | 0.5 (≈ 1.25 µM) | 0.6 (≈ 1.5 µM) | –
CC[C@H]1OC(=O)[C@H](C)[C@@H](O[C@H]2C[C@@](C)(OC)[C@@H](O)[C@H](C)O2)[C@H](C)[C@@H](O[C@@H]2O[C@H](C)C[C@H](N(C)C)[C@H]2O)[C@](C)(O)C[C@@H](C)C(=O)[C@H](C)[C@@H](O)[C@]1(C)O [erythromycin] | – | – | – | – | MIC (P37 E⊖ (resistant); read-out: MIC, P37 E⊖): 50 µg/mL (≈ 68.1 µM); MIC ([1]; ACNESP37, read-out: minimum inhibiting concentration (MIC), P37): 0.78 µg/mL (≈ 1.06 µM); IC50 (P37 [3]): 50 µg/mL (≈ 68.1 µM); zone of inhibition at 50 µg/disc (P37 [4]): 42 mm; IC50 (P37 E⊕): 5 µg/mL (≈ 6.81 µM); IC50 (P37 E⊖): 100 µg/mL (≈ 136 µM); MIC (P37 E⊕ (sensitive); read-out: MIC, P37 E⊕): 0.78 µg/mL (≈ 1.06 µM)
CCCCCCCCO[C@@H]1O[C@H](C)C[C@H](N(C)C)[C@H]1OCCCCCCCC [Compound 16, di-O-octyl-1,2-β-D-desosamine] | 0.15 (≈ 0.375 µM) | 0.7 (≈ 1.75 µM) | 1.2 (≈ 3 µM) | 0.3 (≈ 0.751 µM) | –
CCCCCCCCCCCO[C@H]1C(OCCCCCCCCCC)O[C@H](C)C[C@@H]1N(C)C (some centres unmarked) [Compound 11] | 0.8 (≈ 1.7 µM) | 4 (≈ 8.51 µM) | 0.7 (≈ 1.49 µM) | 0.7 (≈ 1.49 µM) | –
CCCCCCCCCCCCCCCCCCO[C@H]1[C@H](OCCCC)O[C@H](C)C[C@@H]1N(C)C [Compound 10] | 1.56 (≈ 3.22 µM) | 3.12 (≈ 6.45 µM) | 0.04 (≈ 0.0827 µM) | 0.09 (≈ 0.186 µM) | –
CCCCC/C=C\C/C=C\CCCCCCCC(=O)O[C@H]1[C@@H](OCCCC)O[C@H](C)C[C@@H]1N(C)C [Compound 7, O-linoleoyl-2-O-butyl-1-α-D-desosamine] | – | 0.15 (≈ 0.304 µM) | 1.1 (≈ 2.23 µM) | 1.1 (≈ 2.23 µM) | –
CCCCCCCCCC(=O)O[C@H]1C(OCCCC)O[C@H](C)C[C@@H]1N(C)C (stereo partly drawn) [Compound 1, O-decanoyl-2-O-butyl-1-α,β-D-desosamine] | 3.2 (≈ 8.3 µM) | 9 (≈ 23.3 µM) | 5 (≈ 13 µM) | 9 (≈ 23.3 µM) | –
CCCCCCCCCCCC(=O)O[C@H]1C(OC)O[C@H](C)C[C@@H]1N(C)C (stereo partly drawn) [Compound 4, O-dodecanoyl-2-O-methyl-1-α,β-D-desosamine] | – | 25 (≈ 67.3 µM) | 3.8 (≈ 10.2 µM) | 15 (≈ 40.4 µM) | –
CCCCCCCCCCCC(=O)O[C@H]1[C@H](OCCCC)O[C@H](C)C[C@@H]1N(C)C [Compound 3, O-dodecanoyl-2-O-butyl-1-β-D-desosamine] | 1.9 (≈ 4.59 µM) | 15 (≈ 36.3 µM) | – | 0.1 (≈ 0.242 µM) | –
CCCCCCCCO[C@H]1O[C@H](C)C[C@H](N(C)C)[C@H]1OCCCCCCCC [Compound 15, di-O-octyl-1,2-α-D-desosamine] | 0.4 (≈ 1 µM) | 1.8 (≈ 4.5 µM) | 0.3 (≈ 0.751 µM) | 1 (≈ 2.5 µM) | –
CCCCCCCCCCCCCCCCCCO[C@H]1C(OCCCC)O[C@H](C)C[C@@H]1N(C)C (stereo partly drawn) [Compound 8, O-octadecyl-2-O-butyl-1-α,β-D-desosamine] | 8.8 (≈ 18.2 µM) | 0.25 (≈ 0.517 µM) | 2.2 (≈ 4.55 µM) | < 0.03 | –
CCCCCCCCCCCO[C@H]1[C@@H](OCCCCCCCCCC)O[C@H](C)C[C@@H]1N(C)C [Compound 12] | 0.8 (≈ 1.7 µM) | 1.8 (≈ 3.83 µM) | 0.8 (≈ 1.7 µM) | 1 (≈ 2.13 µM) | –
CCCCC/C=C\C/C=C\CCCCCCCC(=O)O[C@H]1C(OCCCC)O[C@H](C)C[C@@H]1N(C)C (stereo partly drawn) [Compound 6, O-linoleoyl-2-O-butyl-1-α,β-D-desosamine] | 0.8 (≈ 1.62 µM) | 0.4 (≈ 0.81 µM) | 0.2 (≈ 0.405 µM) | 0.7 (≈ 1.42 µM) | –
CCCCCCCCCCCCC(CCCCCCCCCC)CO[C@H]1C(OCCCC)O[C@H](C)C[C@@H]1N(C)C (stereo partly drawn) [Compound 17, O-(2-decyl)-tetradecyl-2-O-butyl-1-α,β-D-desosamine] | 6 (≈ 10.6 µM) | 12.5 (≈ 22 µM) | – | 11 (≈ 19.4 µM) | –
O-dodecanoyl-2'-erythralosamine [Compound 18] | – | – | – | – | minimum inhibiting concentration (MIC), P37 E⊖ (resistant) (P37 E⊖ (resistant); Table I, erythromycin-resistant): 0.4 µg/mL; minimum inhibiting concentration (MIC), P37 ([1]; Table I, P. acnes P37): 0.4 µg/mL; minimum inhibiting concentration (MIC), ATCC 12228 [2]: 1.5 µg/mL; minimum inhibiting concentration (MIC), P37 E⊕ (sensitive) (P37 E⊕ (sensitive); Table I, erythromycin-sensitive): 12.5 µg/mL
CCCCCCCCCCCC(=O)O[C@H]1[C@@H](OC)O[C@H](C)C[C@@H]1N(C)C [Compound 5, O-dodecanoyl-2-O-methyl-1-α-D-desosamine] | – | 50 (≈ 135 µM) | 3.2 (≈ 8.61 µM) | 50 (≈ 135 µM) | –
CCCCCCCCCCCO[C@H]1[C@H](OCCCCCCCCCC)O[C@H](C)C[C@@H]1N(C)C [Compound 13] | 0.02 (≈ 0.0426 µM) | 1 (≈ 2.13 µM) | 0.06 (≈ 0.128 µM) | 0.5 (≈ 1.06 µM) | –
CCCCCCCCCCCC(=O)O[C@H]1C(OCCCC)O[C@H](C)C[C@@H]1N(C)C (stereo partly drawn) [Compound 2, O-dodecanoyl-2-O-butyl-1-α,β-D-desosamine] | 0.9 (≈ 2.18 µM) | 0.4 (≈ 0.967 µM) | 3.5 (≈ 8.46 µM) | 0.6 (≈ 1.45 µM) | –
CCCCCCCCCCCCCCCCCCO[C@H]1[C@@H](OCCCC)O[C@H](C)C[C@@H]1N(C)C [Compound 9, O-octadecyl-2-O-butyl-1-α-D-desosamine] | 27.5 (≈ 56.8 µM) | 0.1 (≈ 0.207 µM) | 0.8 (≈ 1.65 µM) | – | MIC (P37 E⊕ (sensitive); read-out: minimum inhibiting concentration (MIC), P37 E⊕ (sensitive)): 27.5 µg/mL (≈ 56.8 µM)
